According to patent publication EP1477169A1, “Reactions of polymorphs of N-methyl-N-(3-(3-(2-thienylcarbonyl)-pyrazol-(1,5-alpha)-pyrimidin-7-yl)phenyl)acetamide” (Neurocrine Biosciences, Inc., priority 1999, dated 2001):
Converted amounts (≈) assume the structure as drawn.

Assays:
[1] = Approximate solubility in various solvents; format: physicochemical; settings: for Solubility: approximate
Excerpt: In addition, the lower melting point polymorph, Form II, also has significant advantages over the polymorphic mixture of Compound 1 as prepared according to known techniques. […] Form II is generally more soluble in polar and protic solvents than is Form I. Enhanced solubility of a compound will generally increase the bioavailability of that compound. When absorption of a drug is dissolution rate limited, use of the more soluble and faster dissolving form improves the rate and extent of bioavailability.

[2] = Physical (polymorphic) stability of the solid form; format: physicochemical; settings: in words, compared with the polymorphic mixture of Compound 1; stability toward conversion to a different polymorphic form
Excerpt: The polymorph Form I is considered a heat stable form of Compound 1. By "heat stable" or ''physically stable" is meant that the Form I is stable toward conversion to the polymorph Form II; although, it may be labile toward degradation to other compounds.
As the higher melting point polymorph, Form I has significant advantages over the polymorphic mixture of Compound 1 prepared according to known techniques. […] This, in turn, enhances the milling and compaction properties of the drug substance.

Structure (SMILES) | Solubility ([1]; Acetone) [µg/mL] | Solubility ([1]; Acetonitrile) [µg/mL] | Solubility ([1]; De-ionized water) [µg/mL] | Solubility ([1]; Diethyl ether) [µg/mL] | Solubility ([1]; Ethanol, absolute (100%)) [µg/mL] | Solubility ([1]; Ethyl acetate) [µg/mL] | Solubility ([1]; Hexane) [µg/mL] | Solubility ([1]; Isopropanol) [µg/mL] | Solubility ([1]; Methanol) [µg/mL] | Solubility ([1]; Polyethylene Glycol 400, NF) [µg/mL] | Solubility ([1]; Tetrahydrofuran) [µg/mL] | Solubility ([1]; Toluene) [µg/mL] | physical stability [2] | solubility in a range of organic solvents ([1]; in words, compared with Form I) | water solubility ([1]; in words, compared with Form I)
CC(=O)N(C)c1cccc(-c2ccnc3c(C(=O)c4cccs4)cnn23)c1 [Form I, N-methyl-N-(3-{3-[2-thienylcarbonyl]-pyrazol-[1,5-α]-pyrimidin-7-yl}phenyl)acetamide] | 4842 (≈ 12.9 mM) | 6246 (≈ 16.6 mM) | 8.3 (≈ 0.022 mM) | 80 (≈ 0.213 mM) | 1426 (≈ 3.79 mM) | 1600 (≈ 4.25 mM) | 41 (≈ 0.109 mM) | 441 (≈ 1.17 mM) | 1740 (≈ 4.62 mM) | 3259 (≈ 8.66 mM) | 9964 (≈ 26.5 mM) | 997 (≈ 2.65 mM) | superior physical stability |  | 
CC(=O)N(C)c1cccc(-c2ccnc3c(C(=O)c4cccs4)cnn23)c1 [Form II, N-methyl-N-(3-{3-[2-thienylcarbonyl]-pyrazol-[1,5-α]-pyrimidin-7-yl}phenyl)acetamide] | 6873 (≈ 18.3 mM) | 8928 (≈ 23.7 mM) | 18.8 (≈ 0.0499 mM) | 51 (≈ 0.135 mM) | 1722 (≈ 4.57 mM) | 2160 (≈ 5.74 mM) | 50 (≈ 0.133 mM) | 457 (≈ 1.21 mM) | 1915 (≈ 5.09 mM) | 10100 (≈ 26.8 mM) | 14740 (≈ 39.2 mM) | 645 (≈ 1.71 mM) |  | generally greater solubility in a range of organic solvents as compared to Form I | superior water solubility over Form I
